Laboratory results from patent publication US10258617B2, “Dosing regimens for fast onset of antidepressant effect” (H. Lundbeck A/S, priority 2016, dated 2019).
Where two headings read alike, the source gives them in different places.

Assays:
5-HT1B receptor = biological target: T1, 5-HT1B receptor (Macaca mulatta, UniProt F6SFA9); assay: Example 1 PET monkey study: change in [11C]AZ10419369-5-HT1B receptor binding potential (BPND); format: in vivo, rhesus monkeys; conditions: rhesus monkey, iv, mean±standard error, n=3, read-out: ΔBPND (% of baseline); for change in vivo at 0.3 mg/kg: Vortioxetine 0.3 mg/kg IV; for change in vivo at 1 mg/kg: Vortioxetine 1.0 mg/kg IV
T1 construct: assess changes in the endogenous serotonin concentration in living rhesus monkeys; from tissue; host or cells: brain of living rhesus monkeys (PET)
T1 sequence (F6SFA9 1-390): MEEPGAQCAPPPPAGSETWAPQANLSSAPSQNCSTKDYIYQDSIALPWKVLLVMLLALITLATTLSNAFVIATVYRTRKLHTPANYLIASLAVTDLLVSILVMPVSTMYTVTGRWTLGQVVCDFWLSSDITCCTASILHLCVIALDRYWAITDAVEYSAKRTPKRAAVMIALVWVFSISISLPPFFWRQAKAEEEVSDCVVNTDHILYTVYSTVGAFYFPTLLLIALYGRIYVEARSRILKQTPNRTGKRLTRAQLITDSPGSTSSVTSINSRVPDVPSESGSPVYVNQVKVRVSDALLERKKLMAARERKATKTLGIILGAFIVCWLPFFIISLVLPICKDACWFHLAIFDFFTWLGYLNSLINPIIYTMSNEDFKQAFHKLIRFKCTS
Source text: (§1) Positron Emission Tomography (PET) was used to assess changes in the endogenous serotonin concentration in living rhesus monkeys. The objective of the present study was two-fold. […] The chemical name for [^11C]MADAM is [^11C] N,N-dimethyl-2-(2-amino-4-methylphenylthio)benzylamine.
(§2) FIG. 1 illustrates the study design used for assessment of serotonin releasing capacities. A similar study design was applied for assessment of SERT occupancy.

[1] = biological target: T2, serotonin transporter (SERT) (Macaca mulatta, UniProt Q9MYX0); assay: Example 1 PET monkey study: SERT occupancy with [11C]MADAM; format: in vivo, rhesus monkeys; conditions: rhesus monkey, iv, monkey brain
T2 construct: serotonin transporter occupancy in the monkey brain using the SERT radio-ligand; from tissue; host or cells: brain of living rhesus monkeys (PET)
T2 sequence (Q9MYX0 whole entry): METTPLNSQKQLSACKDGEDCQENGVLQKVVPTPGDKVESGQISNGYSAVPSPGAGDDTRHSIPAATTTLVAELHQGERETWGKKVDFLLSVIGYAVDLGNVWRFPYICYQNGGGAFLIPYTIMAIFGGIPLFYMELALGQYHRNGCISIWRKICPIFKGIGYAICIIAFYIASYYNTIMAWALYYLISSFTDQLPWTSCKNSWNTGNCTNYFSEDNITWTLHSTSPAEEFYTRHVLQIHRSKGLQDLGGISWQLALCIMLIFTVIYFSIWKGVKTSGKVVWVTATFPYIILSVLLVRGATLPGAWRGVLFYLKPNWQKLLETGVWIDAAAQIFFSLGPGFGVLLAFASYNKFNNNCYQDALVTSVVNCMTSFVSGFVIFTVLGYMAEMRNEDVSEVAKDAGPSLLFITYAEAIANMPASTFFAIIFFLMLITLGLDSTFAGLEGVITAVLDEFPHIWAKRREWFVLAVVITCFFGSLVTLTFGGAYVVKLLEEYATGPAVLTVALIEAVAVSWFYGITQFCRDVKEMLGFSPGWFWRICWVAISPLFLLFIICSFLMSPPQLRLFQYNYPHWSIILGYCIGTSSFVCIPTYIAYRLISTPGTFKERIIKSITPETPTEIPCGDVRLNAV
Source text: as §1, §2

depression = conditions: FDA label of July 2014; oral treatment; cited from earlier work
[2] = cited from earlier work

`Cc1ccc(Sc2ccccc2N2CCNCC2)c(C)c1` [Vortioxetine, 1-[2-(2,4-dimethyl-phenylsulfanyl)-phenyl]piperazine] showed a change in vivo at 0.3 mg/kg (5-HT1B receptor; Amygdala) of -12.4 ± 10.5%, a change in vivo at 1 mg/kg (5-HT1B receptor; Amygdala) of -39.5 ± 11.5% and a change in vivo at 0.3 mg/kg (5-HT1B receptor; Caudate nucleus) of -23.2 ± 7.4%. It also gave a change in vivo at 1 mg/kg (5-HT1B receptor; Caudate nucleus) of -47 ± 8%, a change in vivo at 0.3 mg/kg (5-HT1B receptor; Dorsal raphe nucleus) of -28.3 ± 13.6% and a change in vivo at 1 mg/kg (5-HT1B receptor; Dorsal raphe nucleus) of -55 ± 3.3%. For the same molecule, the change in vivo at 0.3 mg/kg (5-HT1B receptor; Frontal gyrus) was -8.2 ± 8.2%, the change in vivo at 1 mg/kg (5-HT1B receptor; Frontal gyrus) was -32.8 ± 9.5% and the change in vivo at 0.3 mg/kg (5-HT1B receptor; Globus pallidus) was -16.3 ± 5.1%. The change in vivo at 1 mg/kg (5-HT1B receptor; Globus pallidus) was -41.2 ± 6.4%, the change in vivo at 0.3 mg/kg (5-HT1B receptor; Hippocampus) was -9.4 ± 8.9% and the change in vivo at 1 mg/kg (5-HT1B receptor; Hippocampus) was -27 ± 6.8%. For the same molecule, the change in vivo at 0.3 mg/kg (5-HT1B receptor; Midbrain) was -21.9 ± 3%, the change in vivo at 1 mg/kg (5-HT1B receptor; Midbrain) was -49.4 ± 7.1% and the change in vivo at 0.3 mg/kg (5-HT1B receptor; Occipital gyrup) was -24.3 ± 3.2%. For the same molecule, the change in vivo at 1 mg/kg (5-HT1B receptor; Occipital gyrup) was -54.1 ± 4.2%, the change in vivo at 0.3 mg/kg (5-HT1B receptor; Putamen) was -15.6 ± 8.5% and the change in vivo at 1 mg/kg (5-HT1B receptor; Putamen) was -40.8 ± 7.9%. The change in vivo at 0.3 mg/kg (5-HT1B receptor; Thalamus) was -23.9 ± 5%, the change in vivo at 1 mg/kg (5-HT1B receptor; Thalamus) was -42.5 ± 7% and the change in vivo at 0.3 mg/kg (5-HT1B receptor; Ventral striatum) was -25.6 ± 5.4%. It also gave a change in vivo at 1 mg/kg (5-HT1B receptor; Ventral striatum) of -47.7 ± 8.5%, a receptor occupancy at 0.3 mg/kg ([1]; vortioxetine 0.3 mg/kg intravenously) of roughly 50% and a receptor occupancy at 1 mg/kg ([1]; vortioxetine 1.0 mg/kg intravenously) of roughly 80%. The “effect of vortioxetine is observed starting at week” value (depression) was 2 week, the “full antidepressant effect not seen until week” value (depression) was no less than 4 week and the “steady-state plasma level (median AUC0-24)” value (from here on “steady-state plasma level”) ([2]; once daily oral 5 mg) was 161 ng·h/mL. For the same molecule, the “steady-state plasma level” value ([2]; once daily oral 10 mg) was 323 ng·h/mL, the “steady-state plasma level” value ([2]; once daily oral 15 mg) was 484 ng·h/mL and the “steady-state plasma level” value ([2]; once daily oral 20 mg) was 645 ng·h/mL. The “time until steady-state plasma concentration is achieved” value ([2]; once daily oral administration) was “approximately 8 days”.
